Experimental data taken from US12018229B2, “Organic compounds” (Givaudan SA, priority 2018, dated 2024).

Test: Determination of GC-odor threshold values (gas chromatograph with sniff port, panel of trained evaluators)
Details: absolute amount of compound delivered at the sniff port, identical conditions
Method: According to standard procedures known to the person skilled in the art, threshold values for volatile perfumery compounds are determined on a gas chromatograph equipped with a sniff port by a panel of trained evaluators. The lowest concentration smelled by each panelist is recorded as the individual threshold value expressed in ng (absolute amount of compound delivered at the sniff port).
Under identical conditions the odor threshold value for the individual compounds was measured.

Compound | odor threshold value
CC1=CCOC(CCCCc2ccccc2)C1 (centres unmarked) [Example 4, 4-Methyl-2-(4-phenylbutyl)-3,6-dihydro-2H-pyran, reference compound] | 63 ng
CC1=CC(C)OC(CCCc2ccccc2)C1 (centres unmarked) [Example 2, 4,6-Dimethyl-2-(3-phenylpropyl)-3,6-dihydro-2H-pyran] | 0.03 ng
CC1=CCOC(CCc2ccccc2)C1 (centres unmarked) [Example 5, 4-Methyl-2-phenethyl-3,6-dihydro-2H-pyran, reference compound] | 45 ng
CC1=CCOC(Cc2ccccc2)C1 (centres unmarked) [Example 3, 2-Benzyl-4-methyl-3,6-dihydro-2H-pyran] | 0.03 ng
CC1=CCOC(CCCc2ccccc2)C1 (centres unmarked) [Example 1, 4-Methyl-2-(3-phenylpropyl)-3,6-dihydro-2H-pyran] | 0.02 ng
